From patent US5591758A, “Organic nitrates, processes for their preparation and their use in the treatment of cardiovascular diseases” (Laboratoires Hoechst, SA, priority 1991, dated 1997)
Counter-ions that a name gives are not always drawn.

Columns and labels:
[1] = test system: isolated pulmonary vessel; experiment: Relaxant activity on blood vessels isolated from guinea pigs (pulmonary artery); details: Cavia porcellus; guinea pig pulmonary artery, K+ depolarised, Ca2+ contraction; read-out: IC50 (relaxation of 50%)
Experimental: Determination of the relaxant activity of the compounds according to the invention on blood vessels isolated from guinea pigs.
The pulmonary artery of male guinea pigs (350-500 g) is isolated and cut into spiral tracts (1 mm wide, 15 mm long). […] After having removed the calcium from the tissues (Tyrode without calcium and 0.2 mM EDTA), the tracts are depolarised in the presence of a concentrated solution of K^+ ions (40 mM), which is produced by replacing the NaCl by equimolar amounts of KCl, and a contraction of long duration is then induced by Ca^2+ ions (0.5 mM).
The compounds studied are then introduced into the organ cell in increasing concentrations.
Each compound is tested on at least four vessel spiral tracts.

anesthetised pigs = experiment: Haemodynamic effects on anesthetised pigs; format: in vivo, pigs ("German land" race)
Experimental: Haemodynamic effects of the compounds according to the invention on anesthetised pigs or dogs
Pigs are of "German land" race (20-26 kg) and are used after fasting overnight.
In the case of pigs, sedation, analgesia and anesthesia are induced by ketamine HCl (20 mg/kg i.m.), methonidate HCl (10 mg/kg i.m.), xylacine HCl (3 mg/kg i.m.) and sodium pentobarbitol (25-30 mg/kg as bolus i.v. or 0.16 mg/kg/min as i.v. perfusion).
The pigs or dogs are placed under artificial respiration in ambient air. Analysis of the blood gases (pO2, pCO2) is carried out at regular intervals and oxygen can be supplied via the respirator, if necessary.
The haemodynamic parameters recorded include the left ventricular pressure (LVP; Millar PC350 Tip catheter inserted via the carotid artery), systemic blood pressure (BPs, BPd; full catheter in a femoral artery), the end pressure of the left ventricular diastole (LVEDP), the ventricular contractility (LVPdp/dtmax) and the heart rate (HR).
The haemodynamic variables are recorded continuously for 1 to 3 hours, as a function of the period of action of the compound.
The effects of the compounds studied are shown as the absolute difference with respect to the base value (bv) measured before administration of the compounds and are shown in Table VII (a,b,c).
An antianginal activity is estimated by a fall in the BPs and the LVEDP (fall in venous return).

thoracic aorta = experiment: Vasorelaxant effect on isolated vessels (rat thoracic aorta rings without endothelium, precontracted with noradrenalin); parameters: species or system Wistar rats; details: for Emax: Rattus norvegicus, maximum inhibition of noradrenalin effect, 10^-8 to 10^-4 M substance, read-out: Maximum Relaxation; for IC50: rat aorta, 10^-7 M noradrenalin contraction
Outline: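 Endothelium-denuded thoracic aorta rings from Wistar rats, held in Krebs-Ringer buffer (pH 7.4, 37 °C, 95% O2/5% CO2) under isometric tension and precontracted with 10^-7 M noradrenalin, received cumulative compound (10^-8 to 10^-4 M). Maximum relaxation given as percent; IC50 calculated when relaxation exceeded 50%.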

[2] = Stability in water (seen in optical rotation); format: physicochemical; details: water (c 0.6)

Row | Compound | IC50 [1] [µM] | BPs (min), period of action (anesthetised pigs; pigs, 3,0 mg/kg i.d.) [min] | BPs, difference to base value (anesthetised pigs; pigs, 3,0 mg/kg i.d.) [mmHg] | LVRDP (min), period of action (anesthetised pigs; pigs, 3,0 mg/kg i.d.) [min] | LVRDP, difference to base value (anesthetised pigs; pigs, 3,0 mg/kg i.d.) | Emax (thoracic aorta) [%] | IC50 (thoracic aorta) [µM] | stability in water [2] | BPs (min), period of action (anesthetised pigs; pigs, 10,0 mg/kg i.d.) [min] | BPs, difference to base value (anesthetised pigs; pigs, 10,0 mg/kg i.d.) [mmHg] | LVRDP (min), period of action (anesthetised pigs; pigs, 10,0 mg/kg i.d.) [min] | LVRDP, difference to base value (anesthetised pigs; pigs, 10,0 mg/kg i.d.)
1 | O=C(N[C@H]1CO[C@H]2[C@@H]1OC[C@@H]2O[N+](=O)[O-])[C@@H]1CSCN1 [Compound 30, 5-[[(4-L-Thiazolidinyl)carbonyl]amino]-5-deoxy-2-O-nitro-1,4:3,6-dianhydro-L-iditol monohydrochloride] | 32 | > 60 | -40 | > 60 | -2,0 mmHg | 100 | 10 |  |  |  |  | 
2 | CC1(C)N[C@H](C(=O)N[C@H]2CO[C@H]3[C@@H]2OC[C@@H]3O[N+](=O)[O-])CS1 [Compound 32, 5-[[(2,2-Dimethyl-4-L-thiazolidinyl)carbonyl]amino]-5-deoxy-2-O-nitro-1,4:3,6-dianhydro-L-iditol monohydrochloride] |  | > 180 | -30 | > 180 | -4,0 mmHg | 100 | 15 | instability of the product in water |  |  |  | 
3 | O=C(N[C@H]1CO[C@H]2[C@@H]1OC[C@@H]2O[N+](=O)[O-])c1ccccc1SCc1ccccc1 [Compound 39] | 1 |  |  |  |  | 80 | 50 |  | > 90 | -5 | > 90 | -1,0 mmHg
4 | CC1(C)SC[C@@H](C(=O)NCC(=O)N[C@H]2CO[C@H]3[C@@H]2OC[C@@H]3O[N+](=O)[O-])N1C=O [Compound 48, 5-[[2-[[(3-Formyl-2,2-dimethyl-4-L-thiazolidinyl)carbonyl]amino]-1-oxoethyl]amino]-5-deoxy-2-O-nitro-1,4:3,6-dianhydro-L-iditol] | > 100 |  |  |  |  | 25 | > 100 |  | > 180 | -25 | > 180 | -4,0 mmHg
